In brackets after ≈: the same amount, converted by molar mass. Read-outs that look alike come from different tables or passages of the source.
Key:
[1] = Antitumor activity and toxicity on ascites Sarcoma 180 in CD 1 mice; assay type: in vivo; conditions: mouse, in vivo, ip, read-out: % Toxic Deaths
Method in brief: (§1)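 CD 1 mice (3 months old) given 10^6 Sarcoma 180 ascites cells i.p.; compounds in water or 5% ethanol, diluted in Ringer's, dosed i.p. 1 day post-implant. Efficacy taken as maximum increase in median survival time versus untreated controls over the dose range; toxicity by autopsy (spleen size reduction); long-term survivors tumor-free at 60 days.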

[2] = test system: ascites Sarcoma 180; assay: as above; assay type: in vivo; conditions: for % LTS: 60 days; for LTS (Long Term Survivors after 60 days): survivors/total; for Toxic Deaths: deaths/total
Method in brief: as §1

[3] = test system: Mouse Embryo Fibroblasts; assay: Proliferation of uninfected mouse embryo fibroblasts (MEF); assay type: cell-based; conditions: Mus musculus, Fibroblast, 72 h, uninfected MEF, 3 days treatment, read-out: MEF No. of cells
[4] = as above; assay type: cell-based; conditions: mouse, mouse embryo fibroblasts; calculated on dose-effects lines; uninfected MEF, 3 days treatment; read-out: MEF proliferation ID 50 (Inhibiting Dose 50%)
[5] = test system: Solid Sarcoma 180; assay: Antitumor activity and toxicity on solid Sarcoma 180 in CD 1 mice; assay type: in vivo; conditions: for Tumor Volume T/C %: 11th day; for Toxic Deaths: deaths/total
Procedure: The toxicity of the test compounds was evaluated by macroscopic autoptic examination mainly in terms of reduction in spleen size. The comparison of the effectiveness of the test compounds is based on the maximum increase in median survival time, as compared to untreated controls, over the dose range used. The number of Long Term Survivors (LTS) refers to tumor-free mice at the end of the experiment (60 days). Solid Sarcoma 180 was implanted subcutaneously by trocar in the flank of CD 1 mice according to standard methods. The mice were treated i.v. for 5 consecutive days, starting 1 day after the tumor implant. On the 11th day the tumor volume was measured by means of a caliper and evaluated according to the formula (a^2 × b)/2, a and b being the minimum and the maximum diameters respectively.

[6] = test system: Moloney Sarcoma Virus (MSV); assay: Inhibition of MSV-M foci formation in mouse embryo fibroblasts; assay type: cell-based; conditions: Fibroblast, 120 h, 3 days treatment
[7] = 0.2 mg./kg. i.p. 1 day after tumor implant
[8] = 1 mg./kg. i.p. 1 day after tumor implant
[9] = 5 mg./kg. i.p. 1 day after tumor implant
[10] = 12.5 mg./kg. i.p. 1 day after tumor implant
[11] = 25 mg./kg. i.p. 1 day after tumor implant
[12] = 50 mg./kg. i.p. 1 day after tumor implant
[13] = 75 mg./kg. i.p. 1 day after tumor implant
[14] = 100 mg./kg. i.p. 1 day after tumor implant
[15] = 200 mg./kg. i.p. 1 day after tumor implant
[16] = 12.5 mg./kg. i.v. for 5 consecutive days
[17] = 25 mg./kg. i.v. for 5 consecutive days
[18] = 50 mg./kg. i.v. for 5 consecutive days

Structure (SMILES): COc1cccc2c1C(=O)c1c(O)c3c(c(O)c1C2=O)C[C@@](O)(C(=O)CN(CCO)CCO)C[C@@H]3O[C@H]1C[C@H](N)[C@H](O)[C@H](C)O1 [14-diethanolaminodaunomycin]
- mortality ([1]; 0.2 mg./kg. i.p.): 0%
- mortality ([1]; 1 mg./kg. i.p.): 0%
- mortality ([1]; 5 mg./kg. i.p.): 0%
- mortality ([1]; 12.5 mg./kg. i.p.): 0%
- mortality ([1]; 25 mg./kg. i.p.): 0%
- mortality ([1]; 50 mg./kg. i.p.): 0%
- mortality ([1]; 75 mg./kg. i.p.): 10%
- mortality ([1]; 100 mg./kg. i.p.): 42%
- mortality ([1]; 200 mg./kg. i.p.): 100%
- T/C (median survival time, % over untreated controls) [2, 7]: 106%
- % LTS [2, 7]: 0%
- LTS (Long Term Survivors after 60 days) [2, 7]: 0/10
- Toxic Deaths ([2]; 0.2 mg./kg. i.p.): 0/10
- T/C (median survival time, % over untreated controls) [2, 8]: 103%
- % LTS [2, 8]: 0%
- LTS (Long Term Survivors after 60 days) [2, 8]: 0/10
- Toxic Deaths ([2]; 1 mg./kg. i.p.): 0/10
- T/C (median survival time, % over untreated controls) [2, 9]: 124%
- % LTS [2, 9]: 0%
- LTS (Long Term Survivors after 60 days) [2, 9]: 0/10
- Toxic Deaths ([2]; 5 mg./kg. i.p.): 0/10
- T/C (median survival time, % over untreated controls) [2, 10]: 181%
- % LTS [2, 10]: 0%
- LTS (Long Term Survivors after 60 days) [2, 10]: 0/10
- Toxic Deaths ([2]; 12.5 mg./kg. i.p.): 0/10
- T/C (median survival time, % over untreated controls) [2, 11]: 187%
- % LTS [2, 11]: 20%
- LTS (Long Term Survivors after 60 days) [2, 11]: 4/20
- Toxic Deaths ([2]; 25 mg./kg. i.p.): 0/20
- T/C (median survival time, % over untreated controls) [2, 12]: 175%
- % LTS [2, 12]: 23%
- LTS (Long Term Survivors after 60 days) [2, 12]: 4/17
- Toxic Deaths ([2]; 50 mg./kg. i.p.): 0/17
- T/C (median survival time, % over untreated controls) [2, 13]: 170%
- % LTS [2, 13]: 0%
- LTS (Long Term Survivors after 60 days) [2, 13]: 0/10
- Toxic Deaths ([2]; 75 mg./kg. i.p.): 1/10
- T/C (median survival time, % over untreated controls) [2, 14]: 83%
- % LTS [2, 14]: 0%
- LTS (Long Term Survivors after 60 days) [2, 14]: 0/7
- Toxic Deaths ([2]; 100 mg./kg. i.p.): 3/7
- T/C (median survival time, % over untreated controls) [2, 15]: 25%
- % LTS [2, 15]: 0%
- LTS (Long Term Survivors after 60 days) [2, 15]: 0/7
- Toxic Deaths ([2]; 200 mg./kg. i.p.): 7/7
- activity at 0.0062 µg/mL ([3]; dose 0.0062 μg/ml): 100%
- activity at 0.025 µg/mL ([3]; dose 0.0250 μg/ml): 95%
- activity at 0.1 µg/mL ([3]; dose 0.1 μg/ml): 56%
- activity at 0.4 µg/mL ([3]; dose 0.4 μg/ml): 25%
- IC50 at 72 h [4]: 0.13 µg/mL (≈ 0.206 µM)
- Tumor Volume T/C % [5, 16]: 82%
- Toxic Deaths [5, 16]: 1/5
- Tumor Volume T/C % [5, 17]: 66%
- Toxic Deaths [5, 17]: 1/5
- Tumor Volume T/C % [5, 18]: 44%
- Toxic Deaths [5, 18]: 0/5
- inhibition of tumor growth on solid Sarcoma 180 ([5]; at non-toxic doses): marked inhibition of tumor growth, at non-toxic doses
- IC50 ([6]; calculated on dose-effects lines, read-out: MSV-M foci ID 50 (Inhibiting Dose 50%)): 0.052 µg/mL (≈ 0.0825 µM)
- activity at 0.0062 µg/mL ([6]; dose 0.0062 μg/ml, foci counted 5 days after infection, read-out: MSV-M No. of foci): 75%
- activity at 0.025 µg/mL ([6]; dose 0.0250 μg/ml, foci counted 5 days after infection, read-out: MSV-M No. of foci): 73%
- activity at 0.1 µg/mL ([6]; dose 0.1 μg/ml, foci counted 5 days after infection, read-out: MSV-M No. of foci): 21%
- activity at 0.4 µg/mL ([6]; dose 0.4 μg/ml, foci counted 5 days after infection, read-out: MSV-M No. of foci): 0%
